This note sets out measurements from patent publication US8772480B2, “Inhibitors of PI3 kinase and/or mTOR” (priority 2009, dated 2014).

Where two headings read alike, the source gives them in different places.

Experiment [1] concerns the target T1, PI3Kα (Homo sapiens (Human), UniProt P42336). Description: biochemical. To be noted: PI3Kα AlphaScreen ® Ki.
Experiment [2] concerns the target T1, PI3Kα. As to conditions: read-out: PI3Kα AlphaScreen ® Ki. On the technique in general: Alpha assays give light when donor and acceptor beads are brought close together.
Experiment [3] relates to phosphorylation of Akt at Serine 473 in U87 MG cells. Description: cells. As to conditions: Homo sapiens, U-87 MG, 2 h, read-out: U87Cell IC50, pAkt (Ser 473), U87 MG cells, two hours with compound.
Method: pAkt Aplhascreen (U87 Cell)
(§1) This assay was performed using U87 MG cells. […] The cells were maintained weekly using 0.05% Trypsin (Gibco) and replated in 150 mm TC—Treated Culture Dishes (Corning, Corning, N.Y.).
(§2) The first day of the assay, the adherent cells were trypsinized, media was added to the loose cells and cells were mixed to a homogenous mixture. 0.5 ml of the homogenous mixture was counted on the Beckman Coulter® Vi-CELL™ XR (Fullerton, Calif.). 50 frames of cells were counted and the number of viable cells was determined. The cells were then diluted to 0.25 million cells per ml, and centrifuged at 200 rcf for 5 minutes. The media was removed and the cells were reconstituted in fresh media for plating. The cells were plated at 20 μl per well on the PerkinElmer® FlexDrop PLUS in Low Volume 384 Well White Tissue Culture Plates (Corning) with a final cell density of 5K cells per well. The plates were incubated overnight at 37° Celsius, 5% CO2.
(§3) After two hours, the media in the cell plates was aspirated using the BioTek® ELx405HT plate washer (Winooski, Vt.) removing the majority of media and compound without disturbing the adherent U87 cells. […] The plates were then incubated at room temperature on a shaker for ten minutes. […] The AlphaScreen® reaction was added to the cell lysate at 6 μl per well using the PerkinElmer® FlexDrop PLUS. The plates were placed in a humid environment to reduce edge effects and incubated overnight at room temperature with restricted air flow in the dark.
Experiment [4] concerns the target human mutant B-raf (HuBraf V600E) (Homo sapiens (Human), UniProt P15056, V600E). To be noted: at 10 μM compound concentration; POC = 100 − percent inhibition.
The subject of experiment [5] is phosphorylation of Akt at Serine 473 in U87 MG cells. As to conditions: read-out: U87Cell IC50.
Method: pAkt Aplhascreen (U87 Cell)
as §1, §2, §3

human mutant B-raf (HuBraf V600E), sequence (P15056 whole entry V600E): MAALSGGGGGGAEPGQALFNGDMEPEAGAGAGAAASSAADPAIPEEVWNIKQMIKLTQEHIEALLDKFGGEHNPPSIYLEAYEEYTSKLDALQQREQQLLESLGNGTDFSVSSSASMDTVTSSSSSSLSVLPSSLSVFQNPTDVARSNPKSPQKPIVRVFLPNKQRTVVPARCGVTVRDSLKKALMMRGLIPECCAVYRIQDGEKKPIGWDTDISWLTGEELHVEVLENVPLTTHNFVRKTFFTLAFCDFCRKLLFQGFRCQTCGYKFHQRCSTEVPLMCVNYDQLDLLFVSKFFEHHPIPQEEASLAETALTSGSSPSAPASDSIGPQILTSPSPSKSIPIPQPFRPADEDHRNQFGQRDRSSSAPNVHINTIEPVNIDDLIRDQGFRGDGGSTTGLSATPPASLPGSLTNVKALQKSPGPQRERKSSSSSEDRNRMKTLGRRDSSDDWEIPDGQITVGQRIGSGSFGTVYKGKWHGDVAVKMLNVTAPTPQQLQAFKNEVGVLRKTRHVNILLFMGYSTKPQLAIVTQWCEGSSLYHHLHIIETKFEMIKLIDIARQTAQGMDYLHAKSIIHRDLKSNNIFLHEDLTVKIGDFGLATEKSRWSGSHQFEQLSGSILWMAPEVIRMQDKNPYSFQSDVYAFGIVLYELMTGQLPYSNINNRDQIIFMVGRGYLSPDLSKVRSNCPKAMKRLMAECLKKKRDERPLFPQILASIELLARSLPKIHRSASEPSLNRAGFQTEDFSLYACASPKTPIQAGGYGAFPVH
T1 sequence (P42336 whole entry): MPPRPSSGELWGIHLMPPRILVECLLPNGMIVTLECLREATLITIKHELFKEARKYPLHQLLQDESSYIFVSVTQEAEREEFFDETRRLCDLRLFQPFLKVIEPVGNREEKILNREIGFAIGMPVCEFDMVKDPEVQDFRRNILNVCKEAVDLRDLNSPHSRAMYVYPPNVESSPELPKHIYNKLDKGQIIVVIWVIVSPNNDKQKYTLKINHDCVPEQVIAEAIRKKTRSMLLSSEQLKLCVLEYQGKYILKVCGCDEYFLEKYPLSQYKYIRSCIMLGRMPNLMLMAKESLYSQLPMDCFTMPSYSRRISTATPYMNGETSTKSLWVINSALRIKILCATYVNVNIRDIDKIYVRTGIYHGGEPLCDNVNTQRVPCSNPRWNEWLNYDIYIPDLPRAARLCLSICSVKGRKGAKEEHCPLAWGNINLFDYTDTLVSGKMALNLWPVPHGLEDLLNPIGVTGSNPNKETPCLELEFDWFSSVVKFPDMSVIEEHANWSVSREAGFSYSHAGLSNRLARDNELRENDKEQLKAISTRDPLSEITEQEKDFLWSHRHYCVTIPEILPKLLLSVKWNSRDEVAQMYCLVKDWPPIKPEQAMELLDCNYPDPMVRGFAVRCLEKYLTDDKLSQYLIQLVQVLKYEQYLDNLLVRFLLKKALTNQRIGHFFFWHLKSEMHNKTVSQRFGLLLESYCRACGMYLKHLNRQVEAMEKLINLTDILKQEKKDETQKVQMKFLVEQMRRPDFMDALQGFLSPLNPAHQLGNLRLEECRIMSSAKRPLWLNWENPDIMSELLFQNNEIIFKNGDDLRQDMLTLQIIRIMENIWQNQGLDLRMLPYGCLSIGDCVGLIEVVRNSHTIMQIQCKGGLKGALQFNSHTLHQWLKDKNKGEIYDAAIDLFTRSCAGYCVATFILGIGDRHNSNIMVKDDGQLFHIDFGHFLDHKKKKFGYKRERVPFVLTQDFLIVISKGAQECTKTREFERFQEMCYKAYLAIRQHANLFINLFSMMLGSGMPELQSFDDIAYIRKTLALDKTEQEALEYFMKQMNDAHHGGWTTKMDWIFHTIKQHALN
T1 sequence (P27986 whole entry partner): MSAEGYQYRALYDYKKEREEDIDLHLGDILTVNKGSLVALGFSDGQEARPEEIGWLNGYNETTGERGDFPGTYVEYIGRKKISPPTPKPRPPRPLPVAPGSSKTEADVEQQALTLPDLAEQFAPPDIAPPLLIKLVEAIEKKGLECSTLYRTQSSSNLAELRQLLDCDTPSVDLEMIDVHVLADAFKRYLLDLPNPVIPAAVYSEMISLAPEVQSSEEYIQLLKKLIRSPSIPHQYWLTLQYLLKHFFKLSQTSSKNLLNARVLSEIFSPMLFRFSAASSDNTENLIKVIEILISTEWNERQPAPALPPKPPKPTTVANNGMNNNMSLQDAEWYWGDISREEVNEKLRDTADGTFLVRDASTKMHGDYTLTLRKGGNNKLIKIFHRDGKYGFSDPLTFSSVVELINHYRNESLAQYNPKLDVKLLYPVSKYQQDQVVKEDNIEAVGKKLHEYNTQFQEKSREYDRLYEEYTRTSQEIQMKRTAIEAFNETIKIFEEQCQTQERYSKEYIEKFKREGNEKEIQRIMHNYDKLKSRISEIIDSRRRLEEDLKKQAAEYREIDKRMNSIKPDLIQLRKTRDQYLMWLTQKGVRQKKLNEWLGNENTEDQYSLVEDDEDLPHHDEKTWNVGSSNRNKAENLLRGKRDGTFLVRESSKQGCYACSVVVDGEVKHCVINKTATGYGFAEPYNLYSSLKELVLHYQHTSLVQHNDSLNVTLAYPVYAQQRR

By Ki is commonly meant the dissociation constant of the complex between target and ligand, obtained from inhibition or displacement. Regarding `COc1ncc(Nc2ncc(C(C)CO)cc2-c2nc(C)nc(N)n2)cc1F` (single isomer, unassigned) [312 First eluting, 2-(5-(4-Amino-6-methyl-1,3,5-triazin-2-yl)-6-(5-fluoro-6-methoxypyridin-3-ylamino)pyridin-3-yl)propan-1-ol], the affinity at PI3Kα [1] corresponds to a Ki of 9 nM.

One may read the IC50 as the point on the concentration scale where inhibition reaches its midpoint. On to `Cc1nc(-c2cc(Br)cnc2Nc2cccc3[nH]ncc23)c2nc[nH]c2n1` [Example 64, N-(5-bromo-3-(2-methyl-9H-purin-6-yl)pyridin-2-yl)-1H-indazol-4-amine], for which, at PI3Kα [2], the Ki was 50 nM. Further, the IC50 in experiment [3] was above 10000 nM. For the same molecule, the “Mutant B-raf HTRF Assay POC Mean n = 2” value in experiment [4] is recorded as 107% of Control (POC).

In the case of `COc1ccc(Nc2ncc(N3CCOCC3)cc2-c2nc(C)nc3[nH]cnc23)cn1` [Example 97], on PI3Kα [2], the Ki was 107 nM. Also, the IC50 in experiment [3] came out at 441 nM. Besides, the “Mutant B-raf HTRF Assay POC Mean n = 2” value in experiment [4] is listed as 96% of Control (POC).

With `COc1ccc(Nc2ncc([C@@H](O)C(C)(C)C)cc2-c2nc(C)nc3c2ncn3C2CCCCO2)cn1` (stereo partly drawn) [Example 132, (1S)-1-(6-(6-Methoxypyridin-3-Ylamino)-5-(2-Methyl-9-(Tetrahydro-2H-Pyran-2-yl)-9H-Purin-6-yl)Pyridin-3-yl)-2,2-Dimethylpropan-1-ol], the IC50 in experiment [3] is 147 nM. The molecule further had a Ki on PI3Kα [1] of 12 nM.

Take `COc1ccc(Nc2ncc(CN3CCNCC3)cc2-c2nc(C)nc3[nH]cnc23)cn1` [Example 84, N-(6-methoxypyridin-3-yl)-3-(2-methyl-9H-purin-6-yl)-5-(piperazin-1-ylmethyl)pyridin-2-amine]: the Ki on PI3Kα [2] turned out to be 97 nM. Moreover, the IC50 in experiment [3] was 1910 nM. Moreover, in experiment [4], the “Mutant B-raf HTRF Assay POC Mean n = 2” value is on record as 97% of Control (POC).

Take “4-((5-(4-Amino-6-Methyl-1,3,5-Triazin-2-yl)-6-(5-Fluoro-6-Methoxypyridin-3-Ylaamino)Pyridin-3-yl)Methyl)-N-Methyl-N-(2,2,2-Trifluoroethyl)Piperazine-1-Carboxamide [Example 358]”: at PI3Kα [2], the Ki was 24 nM. Also, in experiment [5], the IC50 came out at 121 nM.

Turning to `Cc1nc(-c2cc(Cl)cnc2Nc2cccc3[nH]ncc23)c2nc[nH]c2n1` [Example 61, N-(5-Chloro-3-(2-methyl-9H-purin-6-yl)pyridin-2-yl)-1H-indazol-4-amine], on PI3Kα [2], the Ki amounted to 720 nM. In experiment [3], the IC50 is 3630 nM. The “Mutant B-raf HTRF Assay POC Mean n = 2” value in experiment [4] is reported as 66% of Control (POC).

For the molecule `COc1ccc(Nc2ncc([C@H](O)C(C)(C)C)cc2-c2nc(C)nc3c2ncn3C2CCCCO2)cn1` (stereo partly drawn) [Example 133, (1R)-1-(6-(6-Methoxypyridin-3-Ylamino)-5-(2-Methyl-9-(Tetrahydro-2H-Pyran-2-yl)-9H-Purin-6-yl)Pyridin-3-yl)-2,2-Dimethylpropan-1-ol], the IC50 in experiment [3] turned out to be 278 nM. The molecule also showed a Ki at PI3Kα [1] of 31 nM.

Regarding `COc1ccc(Nc2ncc(CCO)cc2-c2nc(C)nc3[nH]cnc23)cn1` [Example 75, 2-(6-(6-methoxypyridin-3-ylamino)-5-(2-methyl-9H-purin-6-yl)pyridin-3-yl)ethanol], at PI3Kα [2], the Ki came to 23 nM. The IC50 in experiment [3] came out at 179 nM. For the same molecule, the “Mutant B-raf HTRF Assay POC Mean n = 2” value in experiment [4] is given as 94% of Control (POC).

Consider `Cc1nc(-c2cc(CO)cnc2Nc2cccc3[nH]ncc23)c2nc[nH]c2n1` [Example 72, (6-(1H-indazol-4-ylamino)-5-(2-methyl-9H-purin-6-yl)pyridin-3-yl)methanol], for which the inhibitory constant (Ki) on PI3Kα [2] is 33 nM. Also, the IC50 in experiment [3] is 8530 nM. Besides, the “Mutant B-raf HTRF Assay POC Mean n = 2” value in experiment [4] is 77% of Control (POC).

As for `COc1ccc(Nc2ncc(CN3CCN(C(=O)N(C)C4CC4)CC3)cc2-c2nc(C)nc(N)n2)cn1` [Example 359, 4-((5-(4-Amino-6-Methyl-1,3,5-Triazin-2-yl)-6-(6-Methoxypyridin-3-Ylamino)Pyridin-3-yl)Methyl)-N-Cyclopropyl-N-Methylpiperazine-1-Carboxamide], the IC50 in experiment [3] is 90 nM. For the same molecule, affinity at PI3Kα [1] was put at a Ki of 45 nM.

For `COc1ccc(COCc2cnc(Nc3cccc4[nH]ccc34)c(-c3nc(C)nc4[nH]cnc34)c2)cc1` [Example 71, N-(5-((4-methoxybenzyloxy)methyl)-3-(2-methyl-9H-purin-6-yl)pyridin-2-yl)-1H-indol-4-amine], the inhibitory constant (Ki) at PI3Kα [2] worked out at 402 nM. Also, the IC50 in experiment [3] came to 1190 nM. For the same molecule, the “Mutant B-raf HTRF Assay POC Mean n = 2” value in experiment [4] is listed as 75% of Control (POC).

Turning to `COc1ccc(Nc2cnc(Nc3ccc(OC)nc3)c(-c3nc(C)nc4[nH]cnc34)c2)cc1` [Example 90, N5-(4-methoxyphenyl)-N2-(6-methoxypyridin-3-yl)-3-(2-methyl-9H-purin-6-yl)pyridine-2,5-diamine], the Ki at PI3Kα [2] came to 9 nM. In experiment [3], the IC50 was determined as 129 nM. The “Mutant B-raf HTRF Assay POC Mean n = 2” value in experiment [4] is reported as 99% of Control (POC).

Consider `COc1ccc(Nc2ncc(CO)cc2-c2nc(C)nc3[nH]cnc23)cn1` [Example 76, (6-(6-Methoxypyridin-3-Ylamino)-5-(2-Methyl-9H-Purin-6-yl)Pyridin-3-yl)Methanol], for which the Ki on PI3Kα [2] is 44 nM. Further, the IC50 in experiment [3] is 195 nM. In addition, the “Mutant B-raf HTRF Assay POC Mean n = 2” value in experiment [4] is given as 108% of Control (POC).

In the case of `COc1ncc(Nc2ncccc2-c2nc(C)nc3[nH]cnc23)cn1` [Example 66, 2-Methoxy-N-(3-(2-Methyl-9H-Purin-6-yl)Pyridin-2-yl)Pyrimidin-5-Amine], on PI3Kα [2], the Ki turned out to be 62 nM. Further, in experiment [3], the IC50 was found to be 173 nM. In experiment [4], the “Mutant B-raf HTRF Assay POC Mean n = 2” value is listed as 103% of Control (POC).

For `Cc1cnc(Nc2cccnc2)c(-c2nc(C)nc(N)n2)c1` [Example 32, Methyl-6-(5-Methyl-2-(Pyridin-3-Ylamino)Pyridin-3-yl)-1,3,5-Triazin-2-Amine], the Ki at PI3Kα [2] worked out at 191 nM. Moreover, the IC50 in experiment [3] is 587 nM. Further, the “Mutant B-raf HTRF Assay POC Mean n = 2” value in experiment [4] is given as 107% of Control (POC).

Turning to `COc1ccc(Nc2ncc([C@@H](O)C(F)(F)F)cc2-c2nc(C)nc(N)n2)cn1.COc1ccc(Nc2ncc([C@H](O)C(F)(F)F)cc2-c2nc(C)nc(N)n2)cn1` (racemic) [Example 269, (R,S)-1-(5-(4-Amino-6-Methyl-1,3,5-Triazin-2-yl)-6-(6-Methoxypyridin-3-Ylamino)Pyridin-3-yl)-2,2,2-Trifluoroethanol], the Ki at PI3Kα [2] came out at 33 nM. Moreover, in experiment [5] (pAkt (Ser 473), U87 MG cells, two hours with compound), the IC50 is 89 nM.

On PI3Kα [1], `COc1ncc(Nc2ncc(C(C)CO)cc2-c2nc(C)nc(N)n2)cc1F` (single isomer, unassigned) [312 Second eluting, 2-(5-(4-Amino-6-methyl-1,3,5-triazin-2-yl)-6-(5-fluoro-6-methoxypyridin-3-ylamino)pyridin-3-yl)propan-1-ol] had a Ki of 7 nM.

Take `Cc1nc(N)cc(-c2cnccc2Nc2cccc3[nH]ncc23)n1` [Example 107, N-(3-(6-amino-2-methylpyrimidin-4-yl)pyridin-4-yl)-1H-indazol-4-amine]: at PI3Kα [2], the Ki turned out to be 359 nM. The IC50 in experiment [3] is 1540 nM. The “Mutant B-raf HTRF Assay POC Mean n = 2” value in experiment [4] is 62% of Control (POC).

Turning to `COc1ccc(Nc2ncc(CN3CCN(S(C)(=O)=O)CC3)cc2-c2nc(C)nc3[nH]cnc23)cn1` [Example 85, N-(6-methoxypyridin-3-yl)-3-(2-methyl-9H-purin-6-yl)-5-((4-(methylsulfonyl)piperazin-1-yl)methyl)pyridin-2-amine], the Ki on PI3Kα [2] turned out to be 19 nM. In addition, the IC50 in experiment [3] is 133 nM. Besides, in experiment [4], the “Mutant B-raf HTRF Assay POC Mean n = 2” value was 90% of Control (POC).

For `Cc1nc(N)nc(-c2cccnc2Nc2ccc(N)nc2)n1` [Example 50, N5-(3-(4-Amino-6-Methyl-1,3,5-Triazin-2-yl)Pyridin-2-yl)Pyridine-2,5-Diamine], the Ki on PI3Kα [2] was determined as 1330 nM. Further, in experiment [3], the IC50 came out at 3070 nM. Besides, the “Mutant B-raf HTRF Assay POC Mean n = 2” value in experiment [4] is given as 87% of Control (POC).
